The structures appear in SMILES notation.

As usually defined, the IC50 is the concentration needed to halve the response being measured. As usually defined, the DC50 is the concentration at which degradation of the target reaches its halfway point.

In one assay the target is T1, KRAS (WT) (Homo sapiens, UniProt P01116).
T1 construct: Biotinylated KRAS protein amino acids 1-169 (produced at Erasca); made in house
Nature of the assay: In-vitro RAS-RAF binding assay (RRB), HTRF/FRET. The conditions noted are these: Table 2, average of multiple runs of each compound; read-out: Inhibition of RAS-RAF Binding (in-vitro) KRAS (WT) IC50. Format: biochemical. In short, it runs like this: (§1)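 Biotinylated KRAS 1-169 (streptavidin-terbium donor, 30 nM) and GST-cRAF RBD (anti-GST d2 acceptor, 30 nM) in HEPES pH 7.5, NaCl, MgCl2, DTT buffer. After compound incubation, SOS1 catalytic domain plus GTPgS drive 60 min nucleotide exchange. HTRF FRET read at equilibrium, in duplicate.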
In general terms: In TR-FRET formats the signal depends on donor and acceptor labels being close together.

Assay [1] concerns the target T2, KRas G12D fused to HiBiT peptide (Homo sapiens, UniProt P01116, G12D).
T2 construct: endogenous in cells; host or cells: AsPC-1 HiBiT knock-in single clone (Cas9 RNP + ssODN)
Description: ASPC-1 HiBit assay to determine G12D degradation. Format: cell-based. The conditions noted are these: AsPC-1 HiBiT cells, 24-hour incubation; read-out: ASPC-1 HiBit DC50 (C). The protocol:
Compounds presented herein induce degradation of the KRas G12D (KRasG12D) upon treatment of engineered cancer cell line.
The degradation of the KRasG12D in cellular environment was measured using engineered homozygous KRasG12D AsPC-1 cell line in which KRas G12D was fused to luminescent HiBiT peptide at the N-terminal. The small (1.3 kDa) HiBiT peptide complements with high affinity to a larger (18 kDa) subunit evolved from NanoLuc (termed LgBiT). The resulting complex (i.e., reconstituted luciferase enzyme) generates bright luminescence that translates to high sensitivity (1 amol), broad dynamic range (four orders of magnitude), and rapid kinetics for real time quantitation.
To generate HiBit KRasG12D knock-in cell line, sgRNA (SEQ. ID NO: 1) and ssODN (SEQ. ID NO: 2) were designed and synthesized at GenScript.
RNP complex was generated by mixing of 100 pmol of Cas9 protein to PCR tubes containing 300 pmol sgRNA incubating the resultant complex at room temperature for 20 min. […] ssODN was added to RNP complex slowly and RNP-ssODN complex was incubated at room temperature for 10 min. RNP-ssODN complex was mixed with […] of AsPC-1 cells (1×10^6 cells total) and electroporated using Nucleofactor (Program CM-150). Cells were then incubated at ambient temperature for 5 min and transferred to a six-well plate containing 2 ml growth medium.
To select pools with the highest luminescence signal, 10^4 cells of parental AsPC-1 and transfected pools were plated in solid white 384-well tissue culture plates. 24 hours after seeding, HiBiT was detected using the Nano-Glo HiBiT Lytic Detection System (Promega) following manufacturer's instructions. Briefly, […] of Nano-Glo HiBiT Lytic Detection Reagent was added directly to the cells and mixed by inversion before recording luminescence on an Envision (Perkin-Elmer) with 0.5 s integration time.
Single clones were isolated from stable pool by limited dilution method and presence of HiBiT knock-in was verified by TA cloning and subsequent sequencing. Additionally, western blotting analysis was conducted to confirm selection of single clones with high luminescence signal.
For DC50S measurements, AsPC-1 HiBiT single clone cells were grown in RPMI 1640 medium (Invitrogen 22400-089) supplemented with 10% fetal bovine serum. Cells were seeded in 384-well tissue culture plates at a density of 7,000 cells/well and allowed to attach for 24 hours.
Test compounds were distributed directly into assay plate with the adjustment for DMSO concentration using Tecan HP D300e. For most of the experiments, the final concentration of compounds starts from 10 μM, 3-fold dilution dose response and 10 doses. […] DMSO final concentration is 1%. Each concentration of exemplary compound was tested as singleton. The negative control wells were cells with DMSO only, and the positive control wells were cells with […] inhibitor.
Following 24-hour incubation with the compounds plate and Nano-Glo® HiBiT Lytic reagents were equilibrated to room temperature. 20 μL of HiBiT Lytic reagent were added to each well. The assay plate was incubated on digital microplate shaker (350 rpm) for 20 min followed by centrifugation at 500 g for 1 min. Luminescence was recorded using Envision (Perkin-Elmer) using aperture 384-L1 with 0.1 s integration time.
HiBiT signal are used to calculate the % degradation at given compound concentration using the following formula:
% Degradation=(1−(Sample HiBiT signal−Ave Min signal)/(Ave Max signal−Ave Min signal))*100%
For DC50 calculation, the data with the hook effect were removed first and DC50S was reported using a 4-parameter fit of dose response curve using GraphPad in those cases where maximum % degradation was >50% and Minimal % degradation was <50%. The decrease in DC50 reflects that the exemplary compound led to a higher level of degradation of KRasG12D than another exemplary compound at specific timepoint of treatment of cancer cell line. […]
(In general: HiBiT is a short tag that completes a luciferase, so light tracks the accessible tagged protein.)

The target of another assay is KRAS G12D (Homo sapiens, UniProt P01116, G12D). Nature of the assay: In-vitro RAS-RAF binding assay (RRB), HTRF/FRET. Conditions: Table 2, average of multiple runs of each compound; read-out: Inhibition of RAS-RAF Binding (in-vitro) KRAS (G12D) IC50. Format: biochemical. More on the design: Biotinylated KRAS protein amino acids 1-169 (produced at Erasca); made in house. In short, it runs like this: as §1
Sequence of KRAS G12D (P01116 1-169 isoform P01116-2 G12D): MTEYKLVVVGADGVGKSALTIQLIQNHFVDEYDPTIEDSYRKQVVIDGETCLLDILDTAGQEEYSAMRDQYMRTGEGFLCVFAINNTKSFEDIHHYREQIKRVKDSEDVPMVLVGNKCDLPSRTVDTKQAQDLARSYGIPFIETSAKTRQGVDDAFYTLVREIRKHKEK

T1 sequence (P01116 1-169 isoform P01116-2): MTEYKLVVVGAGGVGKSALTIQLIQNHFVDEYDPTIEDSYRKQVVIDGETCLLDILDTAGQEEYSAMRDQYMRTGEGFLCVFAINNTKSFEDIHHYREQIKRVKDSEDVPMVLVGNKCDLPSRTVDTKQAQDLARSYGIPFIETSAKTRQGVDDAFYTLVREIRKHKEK
T2 sequence (P01116 1-188 isoform P01116-2 G12D): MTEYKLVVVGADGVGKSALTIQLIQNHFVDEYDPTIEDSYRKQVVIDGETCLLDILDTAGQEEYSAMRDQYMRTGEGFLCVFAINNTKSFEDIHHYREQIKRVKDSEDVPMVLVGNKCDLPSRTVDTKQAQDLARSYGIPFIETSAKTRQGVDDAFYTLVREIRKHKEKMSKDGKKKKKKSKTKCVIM

Regarding `CC(C)[C@@H](C(=O)N1C[C@H](O)C[C@H]1C(=O)N[C@@H](C)c1ccc(-c2c(F)cccc2F)cc1)c1cc(OCC2CCN(CCOc3nc(N4CC5CCC(C4)N5)c4cc(Cl)c(-c5ccc(F)c6sc(N)c(C#N)c56)c(F)c4n3)CC2)no1` [Example 17, (2S,4R)-1-((2R)-2-(3-((1-(2-((7-(2-amino-3-cyano-7-fluorobenzo[b]thiophen-4-yl)-4-(3,8-diazabicyclo[3.2.1]octan-3-yl)-6-chloro-8-fluoroquinazolin-2-yl)oxy)ethyl)piperidin-4-yl)methoxy)isoxazol-5-yl)-3-methylbutanoyl)-N—((S)-1-(2′,6′-difluoro-[1,1′-biphenyl]-4-yl)ethyl)-4-hydroxypyrrolidine-2-carboxamide], the IC50 came out at 2830 nM at KRAS (WT) and 15.6 nM on KRAS G12D. Also, the DC50 in assay [1] was 244 nM.

`CC(C)[C@@H](C(=O)N1C[C@H](O)C[C@H]1C(=O)N[C@@H](C)c1ccc(-c2c(F)cccc2F)cc1)c1cc(OCC2CCN(CCOc3nc(N4CC5CCC(C4)N5)c4cc(C(F)(F)F)c(-c5ccc(F)c6sc(N)c(C#N)c56)c(F)c4n3)CC2)no1` [Example 18, (2S,4R)-1-((2R)-2-(3-((1-(2-((7-(2-amino-3-cyano-7-fluorobenzo[b]thiophen-4-yl)-4-(3,8-diazabicyclo[3.2.1]octan-3-yl)-8-fluoro-6-(trifluoromethyl)quinazolin-2-yl)oxy)ethyl)piperidin-4-yl)methoxy)isoxazol-5-yl)-3-methylbutanoyl)-N—((S)-1-(2′,6′-difluoro-[1,1′-biphenyl]-4-yl)ethyl)-4-hydroxypyrrolidine-2-carboxamide]: the results for the half-inhibitory concentration (IC50) on KRAS (WT) and on KRAS G12D were 3140 nM and 24.9 nM, respectively. For the same compound, in assay [1], the 50% degradation concentration (DC50) stood at 247 nM.

`C#Cc1c(F)ccc2cc(O)cc(-c3ncc4c(N5CC6CCC(C5)N6)nc(OCCN5CCC(Oc6cc([C@H](C(=O)N7C[C@H](O)C[C@H]7C(=O)N[C@@H](C)c7ccc(-c8c(F)cccc8F)cc7)C(C)C)on6)CC5)nc4c3F)c12` [Example 100, (2S,4R)-1-((2R)-2-(3-((1-(2-((4-(3,8-diazabicyclo[3.2.1]octan-3-yl)-7-(8-ethynyl-7-fluoro-3-hydroxynaphthalen-1-yl)-8-fluoropyrido[4,3-d]pyrimidin-2-yl)oxy)ethyl)piperidin-4-yl)oxy)isoxazol-5-yl)-3-methylbutanoyl)-N—((S)-1-(2′,6′-difluoro-[1,1′-biphenyl]-4-yl)ethyl)-4-hydroxypyrrolidine-2-carboxamide]: the 50% inhibitory concentration (IC50) on KRAS (WT) came out at 2070 nM; on KRAS G12D, 14 nM. Also, the half-maximal degradation concentration (DC50) in assay [1] stood at 197 nM.

On to `C#Cc1c(F)ccc2cc(O)cc(-c3ncc4c(N5CC6CCC(C5)N6)nc(OCCN5CCC6(CC5)CN(c5cc([C@H](C(=O)N7C[C@H](O)C[C@H]7C(=O)N[C@@H](C)c7ccc(-c8ccccc8Cl)cc7)C(C)C)on5)C6)nc4c3F)c12` [Example 99, (2S,4R)-1-((2R)-2-(3-(7-(2-((4-(3,8-diazabicyclo[3.2.1]octan-3-yl)-7-(8-ethynyl-7-fluoro-3-hydroxynaphthalen-1-yl)-8-fluoropyrido[4,3-d]pyrimidin-2-yl)oxy)ethyl)-2,7-diazaspiro[3.5]nonan-2-yl)isoxazol-5-yl)-3-methylbutanoyl)-N—((S)-1-(2′-chloro-[1,1′-biphenyl]-4-yl)ethyl)-4-hydroxypyrrolidine-2-carboxamide], for which the IC50 on KRAS (WT) is 1610 nM; on KRAS G12D, 16 nM. Moreover, the half-maximal degradation concentration (DC50) in assay [1] came out at 264 nM.

As to `C[C@H](NC(=O)[C@@H]1C[C@@H](O)CN1C(=O)[C@@H](NC(=O)CCOCCCN1CCC[C@H]1COc1nc(N2CC3CCC(C2)N3)c2cc(Cl)c(-c3ccc(F)c4sc(N)c(C#N)c34)c(F)c2n1)C(C)(C)C)c1ccc(-c2c(F)cc(F)cc2F)cc1` (single isomer, unassigned) [Example 97], the concentration for half-maximal inhibition (IC50) on KRAS (WT) is 30 nM; on KRAS G12D, 8.6 nM. The half-maximal degradation concentration (DC50) in assay [1] came to 135 nM.

The values above are taken from US20240293558A1, “KRAS INHIBITOR CONJUGATES” (Erasca, Inc., priority 2021, published 2024).
